Reference: publication PMC9332470, “Production and Selection of Antibody–Antigen Pairs for the Development of Immunoenzyme Assay and Lateral Flow Immunoassay Methods for Carbofuran and Its Analogues” (Biosensors, 2022)
Values after ≈ are worked out from the molar mass of the structure shown.

Assays:
mAb 13C8 [1] = experiment: quantum dot-based LFIA (QD-LFIA) with mAb 13C8; type: binding, BALB/c mice; details: for IC50 (QD-LFIA): optimized QD-LFIA, mAb 13C8-QD, T line antigen 30 μg/mL, given as MDA-BSA and MDA-OVA
Method: One milliliter of QDs was added to 9 mL of MES (0.054 M at pH 6.0) and centrifuged at 10,956× g for 20 min. Then, the precipitate was resuspended in 10 mL of MES (0.05 M at pH 6.0). After dispersion by ultrasonication for 2 min, EDC (20 mg) and NHS (20 mg) were added, and the reaction mixture was incubated for 30 min, followed by centrifugation at 10,956× g for 20 min. The precipitate was resuspended in 10 mL of MES (0.05 M at pH 6.0). Then, 1 mg of the mAb dissolved in 10 mL MES (0.027 M at pH 8.0) was added to the QD mixture and shaken at 25 °C and 180 rpm for 90 min. After the reaction, 5 mL of MES (0.054 M at pH 6.0 containing 1.6% BSA, w/v) was added, and the mixture was shaken at 25 °C and 180 rpm for 40 min, followed by centrifugation at 10,956× g for 20 min. The precipitate was resuspended in 10 mL of PB (0.01 M at pH 6.0, containing 5% casein, 1% glucose, 1.5% alanine and 0.05% NaN3, w/v) and dispersed by ultrasonication for 2 min.
The conjugate pad (6 mm × 300 mm) was pretreated with PBS (containing 0.5% Triton X-100, 0.5% alanine and 0.05% NaN3, w/v). Then, 1 mL of the mAb–QD conjugate was sprayed onto the pretreated conjugate pad at a flow rate of 10 μL/cm, and the pad was dried at 37 °C for 2 h. Other applied protocols were similar to those mentioned above.
(§1) Taking the logarithm of the carbofuran concentration as the abscissa and (B/B0)% as the ordinate, the standard curves for ELISA and QD-LFIA were obtained based on the Morgan–Mercer–Flodin (MMF) model, which were fitted by CurveExpert 1.4.0 software (https://www.curveexpert.net, accessed on 15 July 2022). For the ELISA method, B and B0 are the absorbance of the sample well and blank well, respectively. For the QD-LFIA method, B and B0 are the T/C (fluorescence intensity of the test line/fluorescence intensity of the control line) of the sample and blank control, respectively.
(§2) The inhibition ratio (I%) was calculated as (B0-B)/B0 × 100%. IC50 is the concentration of the carbofuran at an I% of 50%, and the limit of detection (LOD) was determined as the concentration showing 10% of inhibition.
(§3) The cross-reactivities (CRs) of benfuracarb, carbosulfan, 3-hydroxy-carbofuran, metolcarb, carbaryl, isoprocarb and aldicarb with carbofuran were assessed by ELISA and QD-LFIA. CR was calculated as CR (%) = [IC50 (carbofuran)/IC50 (analogues)] × 100%.
Then, to prepare QD-LFIA test strips, DDB-BSA (40 μg/mL), DDB-OVA (50 μg/mL), MDA-BSA (35 μg/mL) and MDA-OVA (30 μg/mL) were dispensed onto the NC membrane, and antibody 13C8 was conjugated to the QDs. Carbofuran standards (0, 0.05, 0.15, 0.45, 1.35 and 4.05 ng/mL) were detected to obtain a standard curve, and the IC50 was calculated. […] In LFIA, carbofuran in solution competed with the coating antigen on the NC membrane for antibody 13C8 conjugated to the QDs.
A standard curve was developed with the inhibition ratio (B/B0) versus the logarithm of the concentration of carbofuran.

mAb 13C8 [2] = experiment: indirect competitive ELISA (icELISA) with mAb 13C8; type: binding, BALB/c mice; details: for IC50 (ELISA): optimized ELISA, mAb 13C8 0.03 μg/mL, coating antigen 0.1 μg/mL, given as MDA-BSA and MDA-OVA, unit from text
Method: (§4) Microplates were coated with coating antigens. Different concentrations of the standard (50 µL) and the mAb (50 µL) were added to each well, and the plates were incubated for 20 min at 37 °C. The plates were washed with PBS (0.01 M, containing 0.05% (v/v) Triton X-100), 100 μL of goat anti-mouse IgG-HRP conjugate solution was added to each well, and the plates were incubated for 20 min at 37 °C. After the plates were washed with PBS (0.01 M, containing 0.05% Triton X-100, v/v), 100 µL of TMB single-component substrate solution was added to each well, followed by incubation at 37 °C for 10 min. Finally, the reaction was terminated, and the absorbance at 450 nm was measured by a microplate reader.
as §1, §2, §3
The microplate was coated with the coating antigens DDB-BSA (1 µg/mL), DDB-OVA (0.5 µg/mL), MDA-BSA (0.2 µg/mL) and MDA-OVA (0.1 µg/mL), and the concentration of mAb 13C8 was 0.03 µg/mL. Carbofuran standards (0, 0.05, 0.15, 0.45, 1.35 and 4.05 ng/mL) were detected to obtain a standard curve, and the IC50 was calculated. […] In the icELISA used in this study, free antigen (carbofuran) in solution competed with the coating antigen on the microplate for antibody 13C8; therefore, the IC50 value was negatively correlated with the antibody-binding ability of free antigen competing with coating antigens.
The ELISA method was developed with the antibody 13C8–antigen MDA-BSA pair. Under the optimized coating antigen concentration (0.1 μg/mL), HRP-conjugated goat anti-mouse IgG concentration (1 μg/mL), antibody concentration (0.03 μg/mL) and working buffer parameters (5 mM PBS at pH 7.4), a standard curve was obtained with the concentration of carbofuran on the abscissa and the inhibition ratio (B/B0) on the ordinate.

[3] = tested on: broad-specificity mAb with the immunogen BFNB-BSA; details: cited from earlier work
[4] = tested on: mAb with the immunogen 3-succinyl-carbofuran-KLH; details: cited from earlier work
mAb 6D6 = experiment: ELISA reactivity of hybridoma supernatant, cell line 6D6; type: binding, BALB/c mice; details: cell line 6D6 supernatant, 50 ng/mL pesticide
Method: (§5) The desired antibodies with the highest affinity were screened by icELISA with carbofuran as a competitive compound, and hybridoma cells were cloned by the limited dilution method. Then, the selected hybridoma cells were injected into mice for ascites production. Finally, the mAbs were purified by (NH4)2SO4 with saturation of 50% and further purified by an SPA column.
as §4, §2
(§6) Then, the reactivity of the supernatant of the six cell lines to 50 ng/mL carbofuran, benfuracarb and carbosulfan was assessed by ELISA, and the results are shown in Table 1. […] Because 13C8 had the highest reactivity with carbofuran, benfuracarb and carbosulfan among the six cell lines, it was injected into mice for ascites production, and the mAbs were purified by a protein A column for further experiments.

mAb 7F9 = experiment: ELISA reactivity of hybridoma supernatant, cell line 7F9; type: binding, BALB/c mice; details: cell line 7F9 supernatant, 50 ng/mL pesticide
Method: as §5, §4, §2, §6

mAb 18G3 = experiment: ELISA reactivity of hybridoma supernatant, cell line 18G3; type: binding, BALB/c mice; details: cell line 18G3 supernatant, 50 ng/mL pesticide
Method: as §5, §4, §2, §6

mAb 12D6 = experiment: ELISA reactivity of hybridoma supernatant, cell line 12D6; type: binding, BALB/c mice; details: cell line 12D6 supernatant, 50 ng/mL pesticide
Method: as §5, §4, §2, §6

mAb 13C8 [5] = experiment: ELISA reactivity of hybridoma supernatant, cell line 13C8; type: binding, BALB/c mice; details: cell line 13C8 supernatant, 50 ng/mL pesticide
Method: as §5, §4, §2, §6

mAb 12H5 = experiment: ELISA reactivity of hybridoma supernatant, cell line 12H5; type: binding, BALB/c mice; details: cell line 12H5 supernatant, 50 ng/mL pesticide
Method: as §5, §4, §2, §6

In the case of `CNC(=O)Oc1ccccc1C(C)C` [isoprocarb], the “CR (%) (QD-LFIA)” value (mAb 13C8 [1]; CR = IC50(carbofuran)/IC50(analogue) x 100%, QD-LFIA with mAb 13C8) is reported as <1%, the “IC50 (QD-LFIA)” value (mAb 13C8 [1]) is reported as >0.1 µg/mL and the “CR (%) (ELISA)” value (mAb 13C8 [2]; CR = IC50(carbofuran)/IC50(analogue) x 100%, optimized ELISA with mAb 13C8) is reported as <1%. The “IC50 (ELISA)” value (mAb 13C8 [2]) was >0.02 µg/mL, the “CR(%) (ic-ELISA)” value [3] was 50.7% and the “IC50 (ic-ELISA)” value [3] was 0.01768 µg/mL (≈ 0.0915 µM).
In the case of `CNC(=O)Oc1cccc2c1OC(C)(C)C2O` (centres unmarked) [3-hydroxy-carbofuran], the “IC50 (QD-LFIA)” value (mAb 13C8 [1]) is given as 0.00087 ± 6e-05 µg/mL (≈ 0.00367 µM), the “CR(%) (ic-ELISA)” value [4] is given as 110.1% and the “IC50 (ic-ELISA)” value [4] is given as 0.00069 ± 8e-05 µg/mL (≈ 0.00291 µM). For the same compound, the “IC50 (ELISA)” value (mAb 13C8 [2]) was 0.00025 ± 5e-05 µg/mL (≈ 0.00105 µM).
With `CNC(=O)O/N=C/C(C)(C)SC` [aldicarb] the “IC50 (QD-LFIA)” value (mAb 13C8 [1]) was >0.1 µg/mL and the “IC50 (ELISA)” value (mAb 13C8 [2]) was >0.02 µg/mL.
In the case of `CNC(=O)Oc1ccccc1OC(C)C` [propoxur], the “CR(%) (ic-ELISA)” value [3] is listed as 25.8% and the “IC50 (ic-ELISA)” value [3] is listed as 0.03475 µg/mL (≈ 0.166 µM).
With `CCCCN(CCCC)SN(C)C(=O)Oc1cccc2c1OC(C)(C)C2` [carbosulfan] the “IC50 (QD-LFIA)” value (mAb 13C8 [1]) was 0.00084 ± 9e-05 µg/mL (≈ 0.00221 µM), the “IC50 (ELISA)” value (mAb 13C8 [2]) was 0.00024 ± 4e-05 µg/mL (≈ 0.000631 µM) and the “Reactivity of mAb (I%)” value (mAb 6D6) was 61%. The “Reactivity of mAb (I%)” value (mAb 7F9) was 65%, the “Reactivity of mAb (I%)” value (mAb 18G3) was 71% and the “Reactivity of mAb (I%)” value (mAb 12D6) was 46%. The “CR(%) (ic-ELISA)” value [3] was 7.7%, the “IC50 (ic-ELISA)” value [3] was 0.1158 µg/mL (≈ 0.304 µM) and the “Reactivity of mAb (I%)” value (mAb 13C8 [5]) was 90%. For the same compound, the “Reactivity of mAb (I%)” value (mAb 12H5) was 67%.
For `CNC(=O)Oc1cccc(C)c1` [metolcarb], the “IC50 (QD-LFIA)” value (mAb 13C8 [1]) was >0.1 µg/mL and the “IC50 (ELISA)” value (mAb 13C8 [2]) was >0.02 µg/mL.
In the case of `CCOC(=O)CCN(SN(C)C(=O)Oc1cccc2c1OC(C)(C)C2)C(C)C` [benfuracarb], the “IC50 (QD-LFIA)” value (mAb 13C8 [1]) is reported as 0.00081 ± 7e-05 µg/mL (≈ 0.00197 µM), the “IC50 (ELISA)” value (mAb 13C8 [2]) is reported as 0.00023 ± 3e-05 µg/mL (≈ 0.00056 µM) and the “Reactivity of mAb (I%)” value (mAb 6D6) is reported as 53%. The “Reactivity of mAb (I%)” value (mAb 7F9) was 68%, the “Reactivity of mAb (I%)” value (mAb 18G3) was 76% and the “Reactivity of mAb (I%)” value (mAb 12D6) was 55%. The “Reactivity of mAb (I%)” value (mAb 13C8 [5]) was 91% and the “Reactivity of mAb (I%)” value (mAb 12H5) was 70%.
In the case of `CNC(=O)Oc1cccc2ccccc12` [carbaryl], the “IC50 (QD-LFIA)” value (mAb 13C8 [1]) is listed as >0.1 µg/mL, the “IC50 (ELISA)” value (mAb 13C8 [2]) is listed as >0.02 µg/mL and the “CR(%) (ic-ELISA)” value [3] is listed as 8.5%. The “IC50 (ic-ELISA)” value [3] was 0.10559 µg/mL (≈ 0.525 µM).
